# In patent publication US20240285599A1, “Mature-Hepatocyte Transdifferentiation Suppressing Composition” (OSAKA UNIVERSITY, priority 2021, published 2024):
# Test system: HuCCT1 cell xenograft
# Test: HuCCT1 xenograft in NOG mouse, oral NIKSMI
# Assay type: in vivo
# Details: twice a day, 200 mg/kg
# Procedure: A histopathological slide was deparaffinized with xylene and ethanol. HE staining was performed with hematoxylin and eosin. In immunostaining, antigen activation was performed by heating in Target Retrieval Solution (Dako, USA), followed by blocking with bovine serum albumin and a reaction through use of a primary antibody at 4° C. overnight. A frozen section was dried at room temperature, and was blocked with BSA (Nacalai Tesque, Inc., Japan), followed by a reaction through use of a primary antibody in VECTASTAIN ABC Rabbit IgG Kit (Vector Laboratories, Inc., USA). DAB Substrate Kit (Vector Laboratories, Inc., USA) was used in a staining reaction. […] The number of Ki67-positive cells in a tumor was counted with ImageJ (Fiji). The immunostaining score of TRAF3 or NIK was calculated by multiplying a staining intensity (of from 0 to 3) by a stained area (%). Human ICC patients were grouped into two groups on the basis of the median immunostaining score of TRAF3 or NIK, and were evaluated for their disease-free survival (DFS) or overall survival (OS).
# To generate a xenograft tumor, 5×10^6 HuCCT1 cells were mixed with Matrigel at a ratio of 1:1, and the mixture was subcutaneously injected into each of NOG mice. […] During the period, the diameters of the tumors were measured every 3 days, and the tumor sizes were each calculated by using the following equation. […]
smiles,measurement,setting,value
"COc1cc(C(N)=O)nc(-c2cccc(C#C[C@]3(O)CCN(C)C3=O)c2)c1 [NIKSMI, (R)-6-(3-((3-hydroxy-1-methyl-2-oxopyrrolidin-3-yl)ethynyl)phenyl)-4-methoxypicolinamide]",number of Ki67-positive cells in tumors versus vehicle-administered tumors,"NOG mouse HuCCT1 xenograft, 14 days, FIG. 23B",significantly lower
same,growth of xenografts derived from the HuCCT1 cells (tumor size),"NOG mouse, 14 days from day 28 after transplantation, FIG. 23A",significantly suppressed
